# Measurements reported in US4902720A (priority 1988, dated 1990).
# What was measured:
# HSV-1 and HSV-2 = assay type: cell-based; conditions: summary
# HSV-2 (333 strain) = test: Plaque inhibition by HMB, HSV-2 333 strain in Vero cells (third series, Experiments 1M-1P); assay type: cell-based
# Experimental: In this experiment, 25 mg/ml HMB was tested on Vero cells infected with HSV-2. The virus control cultures, without HMB, had 705 plaque.
# The number of plaque on the virus control was about 10 to 12 plaque.
# In this experiment, 25 mg/ml, 20 mg/ml, and 15 mg/ml of HMB concentrations were tested on Vero cells infected with HSV-2. […] The experimental flasks had as many, or more, plaque as the control, with an average of 154 plaque for the control and 169 plaque for the HMB-treated flasks.
# HMB was further tested at a concentration of 20 mg/ml of reinfected Vero cells.
# RK-13 cells = conditions: 25 mg/ml, 48 hours, 37° C.
# Experimental: (§1) Healthy confluent monolayer cell cultures were overlaid with 1 ml of the drug and incubated for 48 hours at 37° C. and then stained. Cell cultures with maintenance media were used as controls.
# [1] = tested on: Flow 1000 cells (foreskin cells); conditions: 25 mg/ml, 48 hours, 37° C.
# Experimental: as §1
# Vero cells = conditions: 25 mg/ml, 48 hours, 37° C.
# Experimental: as §1
smiles,measurement,setting,value
"C[N+](C)(C)CCCCCC[N+](C)(C)C [HMB, hexamethonium bromide]",in vitro replication of HSV-1 and HSV-2,HSV-1 and HSV-2,inhibit the in vitro replication of HSV-1 and HSV-2
same,appearance of cell layer,"HSV-2 (333 strain); Exp. 1M, 25 mg/ml HMB",thin cell layer
same,number of plaque,"HSV-2 (333 strain); Exp. 1M, 25 mg/ml HMB, control 705",142 plaque
same,inhibition of plaque,"HSV-2 (333 strain); Exp. 1N, 20 mg/ml HMB, control about 10 to 12 plaque",complete inhibition of plaque
same,effect on plaque,"HSV-2 (333 strain); Exp. 1O, 15 mg/ml HMB",did not have any effect
same,average number of plaque,"HSV-2 (333 strain); Exp. 1O, 15 mg/ml HMB, control 154",169 plaque
same,number of plaque,"HSV-2 (333 strain); Exp. 1O, 20 mg/ml HMB",no plaque
same,toxicity to the monolayer,"HSV-2 (333 strain); Exp. 1O, 25 mg/ml HMB",toxic to the monolayer
same,number of plaque,"HSV-2 (333 strain); Exp. 1O, 25 mg/ml HMB, most likely due to toxicity",no plaque
same,inhibition at 25000 µg/mL,"HSV-2 (333 strain); Human alphaherpesvirus 2, Vero, Exp. 1M, 25 mg/ml HMB",80%
same,inhibition at 20000 µg/mL,"HSV-2 (333 strain); Human alphaherpesvirus 2, Vero, Exp. 1P, 20 mg/ml HMB",91%
same,toxicity,RK-13 cells,slight toxicity
same,toxicity,[1],no toxicity
same,toxicity,Vero cells,no toxicity
